Columns and labels:
Format in all cases: cell-based
CYP1A1 = target: T1, CYP1A1 (Homo sapiens, UniProt P04798); assay: EROD (ethoxyresorufin deethylase) assay in V79 cells expressing human CYP1A1
T1 sequence (P04798 1-512): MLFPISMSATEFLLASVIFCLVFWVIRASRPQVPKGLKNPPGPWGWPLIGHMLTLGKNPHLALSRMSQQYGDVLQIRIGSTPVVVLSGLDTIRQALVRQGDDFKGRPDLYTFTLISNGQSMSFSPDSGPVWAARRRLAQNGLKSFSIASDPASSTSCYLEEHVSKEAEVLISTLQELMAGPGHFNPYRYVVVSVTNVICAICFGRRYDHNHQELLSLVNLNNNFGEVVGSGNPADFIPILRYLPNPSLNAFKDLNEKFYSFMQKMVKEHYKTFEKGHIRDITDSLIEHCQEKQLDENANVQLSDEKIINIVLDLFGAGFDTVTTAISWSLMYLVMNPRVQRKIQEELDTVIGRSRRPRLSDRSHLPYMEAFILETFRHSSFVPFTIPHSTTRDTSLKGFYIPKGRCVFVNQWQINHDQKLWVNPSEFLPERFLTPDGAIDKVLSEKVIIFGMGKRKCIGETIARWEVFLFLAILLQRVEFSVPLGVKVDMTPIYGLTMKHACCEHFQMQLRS

CYP1A2 = target: T2, CYP1A2 (Homo sapiens, UniProt P05177); assay: EROD (ethoxyresorufin deethylase) assay in V79 cells expressing human CYP1A2
T2 sequence (P05177 2-516): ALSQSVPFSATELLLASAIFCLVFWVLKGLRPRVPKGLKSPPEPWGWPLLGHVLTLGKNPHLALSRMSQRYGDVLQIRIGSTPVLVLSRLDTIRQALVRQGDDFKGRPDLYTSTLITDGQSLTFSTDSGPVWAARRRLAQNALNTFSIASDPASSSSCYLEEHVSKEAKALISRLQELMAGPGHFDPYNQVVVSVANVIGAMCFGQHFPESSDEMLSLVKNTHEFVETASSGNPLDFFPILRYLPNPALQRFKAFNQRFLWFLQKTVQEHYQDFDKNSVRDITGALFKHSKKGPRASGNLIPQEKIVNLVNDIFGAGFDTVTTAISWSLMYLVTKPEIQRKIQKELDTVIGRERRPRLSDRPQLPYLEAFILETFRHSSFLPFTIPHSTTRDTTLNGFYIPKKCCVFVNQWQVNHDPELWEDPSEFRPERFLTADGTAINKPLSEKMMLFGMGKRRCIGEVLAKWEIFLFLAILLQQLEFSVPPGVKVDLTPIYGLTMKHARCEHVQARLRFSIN

CYP1B1 = target: T3, CYP1B1 (Homo sapiens, UniProt Q16678); assay: EROD (ethoxyresorufin deethylase) assay in V79 cells expressing human CYP1B1
T3 sequence (Q16678 1-543): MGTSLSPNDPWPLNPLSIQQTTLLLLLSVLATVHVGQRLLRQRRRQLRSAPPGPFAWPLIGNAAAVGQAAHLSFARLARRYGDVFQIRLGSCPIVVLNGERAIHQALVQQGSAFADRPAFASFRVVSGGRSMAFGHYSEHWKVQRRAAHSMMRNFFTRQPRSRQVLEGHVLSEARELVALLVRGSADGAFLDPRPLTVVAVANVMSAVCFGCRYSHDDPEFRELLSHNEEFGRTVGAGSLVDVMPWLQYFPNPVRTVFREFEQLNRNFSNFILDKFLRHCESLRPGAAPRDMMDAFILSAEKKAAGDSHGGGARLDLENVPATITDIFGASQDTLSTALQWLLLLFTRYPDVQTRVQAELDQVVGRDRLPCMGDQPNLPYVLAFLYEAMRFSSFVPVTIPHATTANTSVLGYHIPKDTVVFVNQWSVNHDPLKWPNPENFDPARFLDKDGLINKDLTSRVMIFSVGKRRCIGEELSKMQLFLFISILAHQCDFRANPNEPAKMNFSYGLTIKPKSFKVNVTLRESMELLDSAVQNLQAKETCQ

CC#Cc1ccc2ccc3cccc4ccc1c2c34 [1-PP, 1-(1-propynyl)-pyrene]
IC50 (CYP1A1): 5 nM | IC50 (CYP1A2): 650 nM | IC50 (CYP1B1): 218 nM

— paper PMC5343665, “Cytochrome P450s in human immune cells regulate IL-22 and c-Kit via an AHR feedback loop” (Scientific Reports, 2017)
